{"source": "patent US20210379153A1", "about": "“COMBINATION THERAPIES COMPRISING SIRP ALPHA-BASED CHIMERIC PROTEINS” (Shattuck Labs, Inc., priority 2018, published 2021)", "key": {"Raji cells": {"system": "Raji cells", "test": "In vitro phagocytosis of Raji cells by human macrophages", "format": "cell-based", "excerpt": "To this end, in vitro tumor cell phagocytosis assays were established to determine whether SIRPα-Fc-CD40L enhanced macrophage-mediated phagocytosis of various tumor cell lines both alone and in combination with anti-CD20 antibodies.\nInitially, a variety of CD20+ lymphoma (Toledo, Raji, and Ramos) cell lines were co-cultured with human monocyte-derived macrophages to assay the amount of phagocytosis promoted by the SIRPα(CD172a)-Fc-CD40L chimeric protein in the presence or absence of an anti-CD20 antibody.\nSuch synergistic effect was unexpected.\nThese experiments used an in vitro phagocytosis assay with human donor macrophages and several human tumor cell lines (e.g., Raji cells, a human Burkitt lymphoma tumor cell line), to test whether SIRPα-Fc-CD40L's blockade of the tumor cell antigen CD47 (“don't eat me signal”) could stimulate phagocytosis, and potentially synergize with the anti-CD20 antibody, Rituximab. FIG. 10A is a cartoon illustrating steps used in this assay.\nCo-cultures of tagged Raji cells and macrophages were treated with a variety of chimeric protein and antibody combinations, including control IgGs with an anti-CD20 antibody (Rituximab), an anti-CD47 antibody (CC9, Celgene), the SIRPα(CD172a)-Fc-CD40L chimeric protein, and/or pembrolizumab (an anti-PD-1 antibody; […]/MK 3475, Merck). […] Such synergistic effect was unexpected."}, "WEHI3 tumors": {"system": "WEHI3 tumors", "test": "WEHI3 tumor model", "format": "in vivo, BALB/C mice", "procedure": "FIG. 20C: a similar CT26 experiment was initiated as described in FIG. 20A above, however mice were pre-treated on days −1, 1, and 10 with IP injections of 100 μg of either or both CD4/CD8 depleting antibodies. Mice were inoculated with CT26 tumors on day 0 and treated at a later starting date than FIG. 20A with mSIRPα-Fc-CD40L ARC on days 7, 9, and 11. […] In FIG. 20D and FIG. 20E, BALB/C mice were inoculated with WEHI3 tumors (FIG. 20D) or A20 tumors (FIG. 20E) subcutaneously on the rear flank, and then treated via IP injection with anti-CD20 or mSIRPα-Fc-CD40L on days 7, 9, and 11 (WEHI3) or days 10, 12, and 14 (A20); when tumors were established and reached approximately 57-60 mm^3. A cohort of mice were pre-treated with an interferon alpha receptor 1 (IFNAR1) blocking antibody ([…] by IP injection) on days −1, 1, and 10 (WEHI3) or on days −1, 1, and 13 (A20). FIG. 20F to FIG. 20H are graphs showing blockade of CD4, CD8, and IFNAR1. Peripheral blood analysis by flow cytometry of CD4 (FIG. 20F), CD8 (FIG. 20G), and IFNAR1 (FIG. 20H) depletion following depleting antibody treatment corresponding to FIG. 20C to FIG. 20E. Samples were normalized to untreated animals.\nIn a second set of experiments, a combination of an anti-IFNAR-1 antibody and the anti-CD20 antibody, the SIRPα(CD172a)-Fc-CD40L chimeric protein in combination with the anti-IFNAR-1 antibody, and a triple combination of the SIRPα(CD172a)-Fc-CD40L chimeric protein, the anti-IFNAR-1 antibody, and the anti-CD20 antibody were tested. […] The depletion of IFNAR1+ cells was confirmed at multiple time points in the peripheral blood by flow cytometry (FIG. 20H)."}, "splenic dendritic cells": {"system": "splenic dendritic cells", "test": "In vivo splenic dendritic cell activation", "set-up": "species or system mice", "details": "mouse", "procedure": "For each panel, the samples are (left to right): untreated, sheep RBCs, αCD47 (MIAP301), αSIRPα (P84), mSIRPα-Fc-CD40L, mSIRPα-Fc-CD40L (24 Hrs), and αCD47 (MIAP301) (24 hrs). FIG. 9B is a quantitation of in vivo dendritic cell activation corresponding to FIG. 9A. Shown is the absolute percent of CD4+ and CD8+ dendritic cells; also gated on CD11c and DC1R2. In FIG. 9B, for each panel, the samples are (left to right): untreated, sheep RBCs, αCD47 (MIAP301), αSIRPα (P84), SIRPα-Fc-CD40L (150 μg), SIRPα-Fc-CD40L (300 μg), SIRPα-Fc-CD40L (300 μg) (24 Hrs), and αCD47 (MIAP301) (24 hrs).\nAn in vivo assay to examine SIRPα/CD47 function in mice was describe in Yi et al., “Splenic Dendritic Cells Survey Red Blood Cells for Missing Self-CD47 to Trigger Adaptive Immune Responses. Immunity. 2015; 43(4):764-75) (the contents of which is incorporated by reference in its entirety). This assay detects the activation status of splenic dendritic cells in response to SIRPα/CD47 inhibitors or to infused sheep red blood cells (RBC).\nAfter 6 or 24 hours, mice were euthanized and their spleens excised, dissociated, and assessed by flow cytometry for populations of activated CD4+ dendritic cells (DCs) (FIG. 9A, left panel) or CD8+ dendritic cells (FIG. 9A, right panel); both populations of dendritic cells were also positive for MHC II (I-Ab), CD11c, and DC1R2."}}, "note": "“Also recorded” adds a separate entry of the source.", "data": [{"substance": "SIRPα-Fc-CD40L: generic name of the SIRPαECD-Fc-CD40LECD chimeric protein; human or murine version according to the experiment", "values": [{"measurement": "synergy in phagocytosis with anti-CD20 antibody", "setting": "Raji cells; Fc receptors on the macrophages pre-blocked", "result": "synergy was lost"}, {"measurement": "phagocytosis activity by flow cytometry", "setting": "Raji cells; combination with an anti-CD20 antibody, among treatment groups", "result": "greatest phagocytosis activity"}, {"measurement": "macrophage engulfment (phagocytosis) of tumor cells", "setting": "Raji cells; combination with anti-CD20 antibody (Rituximab), listed as SIRPα(CD172a)-Fc-CD40L", "result": "most effective; also recorded: effective"}, {"measurement": "rate of tumor cells engulfed by macrophages (phagocytosis index)", "setting": "Raji cells; combination with anti-CD20 antibody vs chimeric protein-alone and antibody-alone treatments", "result": "greater than the sum"}, {"measurement": "stimulation of phagocytosis", "setting": "Raji cells; combination with anti-CD20 antibody, CD40 pre-blocked", "result": "remained the same"}, {"measurement": "tumor size", "setting": "WEHI3 tumors; combination with anti-CD20 antibody", "result": "reduced tumor size greater than either component alone"}, {"measurement": "tumor reduction", "setting": "WEHI3 tumors; combination with anti-IFNAR-1 antibody vs chimeric protein alone", "result": "less tumor reduction"}, {"measurement": "tumor reduction", "setting": "WEHI3 tumors; triple combination with anti-CD20 and anti-IFNAR-1 antibodies vs chimeric protein plus anti-CD20", "result": "less tumor reduction"}, {"measurement": "proportion of overall splenic DCs vs antibody treated groups", "setting": "splenic dendritic cells", "result": "higher proportion of overall splenic DCs"}]}]}
